# “Also recorded” adds a separate entry of the source.
# Tests used:
# 293mitoPARP Zellen [1] = assay: Cell viability (MTT assay) of 293mitoPARP cells; format: cell-based, menschlichen Zellen; conditions: for Zell-Überleben: FK866 (2 µM), 100 µM metabolite, 72 h, Fig. 3A
# Description: (§1) Inhibitoren (2 µM FK866, 2 mM 3-AB, 10 µM NBTI, 2 µM Dipyridamol, 2 mM CMP, 25 µM PPADS, 1 mM Ap4A) oder Metaboliten (100 µM NAD^+, 100 µM NAAD, 100 µM NMN, 100 µM NAMN, 100 µM NA, 100 µM NR) wurden dem Zellkulturmedium zugesetzt, wie angegeben. […] Die Behandlung mit Inhibitoren und Metaboliten wurde für 24-48 h vor der Analyse von PAR Bildung und die Lebensfähigkeit der Zellen durchgeführt (72 h für 293mitoPARP Zellen, 96 h für HeLa S3-Zellen und 120 h für HepG2-Zellen). Die Lebensfähigkeit der Zellen wurde mittels MTT-Assay bestimmt.
# HeLa S3-Zellen = assay: Cell viability (MTT assay) of HeLa S3 cells; format: cell-based, menschlichen Zellen; conditions: for Überleben: FK866 (2 µM), 100 µM metabolite, 96 h, Fig. 3B
# Description: as §1
# 293mitoPARP Zellen [2] = assay: Mitochondrial NAD+ content by PAR formation (mitoPARP) in 293mitoPARP cells; format: cell-based, menschlichen Zellen; conditions: NamPRT inhibited by FK866 (2 µM), 100 µM metabolite in the medium, Fig. 3A
# Description: Inhibitoren (2 µM FK866, 2 mM 3-AB, 10 µM NBTI, 2 µM Dipyridamol, 2 mM CMP, 25 µM PPADS, 1 mM Ap4A) oder Metaboliten (100 µM NAD^+, 100 µM NAAD, 100 µM NMN, 100 µM NAMN, 100 µM NA, 100 µM NR) wurden dem Zellkulturmedium zugesetzt, wie angegeben. NR wurde wie beschrieben bereitgestellt (Dölle et al., Anal. Biochem. 385 (2009), 377-379). Die Behandlung mit Inhibitoren und Metaboliten wurde für […] vor der Analyse von PAR Bildung und die Lebensfähigkeit der Zellen durchgeführt (72 h für 293mitoPARP Zellen, 96 h für HeLa S3-Zellen und 120 h für HepG2-Zellen). Die Lebensfähigkeit der Zellen wurde mittels MTT-Assay bestimmt.
# Es wurden 293mitoPARP Zellen bereitgestellt, die ein Fusionsprotein exprimieren ("mitoPARP"), bestehend aus EGFP und PARP1cd (poly-ADP-Ribose-Polymerase-1), welches auf die mitochondriale Matrix abgezielt wurde. Mit mitochondrialem NAD^+ als Substrat generieren diese Zellen konstitutiv Protein-gebundenes PAR (Protein-gebundene poly-ADP-Ribose), welches immunchemisch visualisiert wird. Variationen im Umfang der erfassten PAR spiegeln damit Veränderungen des mitochondrialen NAD^+-Gehaltes wider. Ebenso wurde die transiente Expression von mitoPARP in HepG2 und HeLa S3 Zellen verwendet.
# Ein PAR-Signal hängt sowohl von der katalytischen Aktivität von mitoPARP als auch von der Anwesenheit von NAD^+ ab. Folglich erlaubt die mitoPARP-Expression die Erkennung von Änderungen im mitochondrialen NAD^+-Gehalt.
# menschlichen Zellen [3] = assay: Mitochondrial NAD+ generation / PAR formation from extracellular precursors with inhibitors, cell line not stated; format: cell-based; conditions: for Funktion von NMN als extrazellulärer NAD^+-Vorläufer: NMN as precursor in presence of nucleoside transporter inhibitor (2 µM Dipyridamol, 10 µM NBTI); for NR-Nutzung: NR as precursor, nucleoside transporter inhibitor added
# HeLa S3 Zellen = assay: Mitochondrial NAD+ content by PAR formation (transient mitoPARP) in HeLa S3 cells; format: cell-based, menschlichen Zellen; conditions: FK866 (2 µM), 100 µM metabolite, Fig. 3B
# menschlichen Zellen [4] = assay: Cell viability (MTT assay) with extracellular precursors and inhibitors, cell line not stated; format: cell-based
# [5] = NAD^+ as extracellular precursor, competitive NPP substrate added (1 mM Ap4A), effect similar to PPADS
# [6] = NMN as precursor, 2 mM CMP added
# [7] = NAD^+ as extracellular precursor, inhibitor added (25 µM PPADS), cell line not stated
# [8] = extracellular NR (100 µM), b59: in Gegenwart von CMP, Fig. 4B
structure (smiles),measurement,setting,value
"Nc1ncnc2c1ncn2[C@@H]1O[C@H](COP(=O)(O)OP(=O)(O)OP(=O)(O)OP(=O)(O)OC[C@H]2O[C@@H](n3cnc4c(N)ncnc43)[C@H](O)[C@@H]2O)[C@@H](O)[C@H]1O [Ap4A, Diadenosintetraphosphat]",Lebensfähigkeit der Zellen,293mitoPARP Zellen [1]; [5],ähnlichen Effekt
same,Lebensfähigkeit der Zellen,HeLa S3-Zellen; [5],ähnlichen Effekt
"O=C(O)c1cccnc1 [NA, Nikotinsäure]",Zell-Überleben,293mitoPARP Zellen [1],wiederherstellen
same,Überleben,HeLa S3-Zellen,Restaurierung des Überlebens
same,mitochondrialer NAD^+-Gehalt (PAR),293mitoPARP Zellen [2],wiederherstellen
"O=C([O-])c1ccc[n+]([C@@H]2O[C@H](COP(=O)(O)O)[C@@H](O)[C@H]2O)c1 [NAMN, Nikotinsäure-Mononukleotid]",Zell-Überleben,293mitoPARP Zellen [1],schützen; also recorded: wiederherstellen
same,mitochondriale NAD^+-Generierung von NAMN,"menschlichen Zellen [3]; NAMN as precursor in presence of CMP, Dipyridamol, NBTI, Fig. 4A","sensitiv gegenüber diesen Inhibitoren, wenn auch weniger stark"
same,mitochondriale NAD^+-Bildung,HeLa S3 Zellen,unterstützen
same,Überleben,HeLa S3-Zellen,schützen; also recorded: Restaurierung des Überlebens
same,mitochondrialer NAD^+-Gehalt (PAR),293mitoPARP Zellen [2],unterstützen; also recorded: wiederherstellen
Nc1ccn([C@@H]2O[C@H](COP(=O)(O)O)[C@@H](O)[C@H]2O)c(=O)n1 [CMP],Zellviabilität,293mitoPARP Zellen [1]; [6],verringert
same,Zellviabilität,HeLa S3-Zellen; [6],verringert
O=[N+]([O-])c1ccc(CSc2ncnc3c2ncn3[C@@H]2O[C@H](CO)[C@@H](O)[C@H]2O)cc1 [NBTI],Funktion von NMN als extrazellulärer NAD^+-Vorläufer,menschlichen Zellen [3]; Fig. 4A,verlor NMN seine Funktion
same,NR-Nutzung,menschlichen Zellen [3]; Fig. 4B,hemmen
Cc1nc(N=Nc2ccc(S(=O)(=O)O)cc2S(=O)(=O)O)c(COP(=O)(O)O)c(C=O)c1O [PPADS],Wiederherstellung des mitochondrialen NAD^+-Pools,menschlichen Zellen [3]; [7],verhindert
same,Überleben der Zelle,menschlichen Zellen [4]; [7],verhindert
O=C(/C=C/c1cccnc1)NCCCCC1CCN(C(=O)c2ccccc2)CC1 [FK866],Nam Nutzung,"menschlichen Zellen [3]; 2 µM FK866, Fig. 3",gehemmt
"NC(=O)c1ccc[n+]([C@@H]2O[C@H](COP(=O)([O-])O)[C@@H](O)[C@H]2O)c1 [NMN, Nikotinamid-Mononukleotid]",Zell-Überleben,293mitoPARP Zellen [1],schützen; also recorded: wiederherstellen
same,mitochondriale NAD^+-Bildung,HeLa S3 Zellen,unterstützen
same,Überleben,HeLa S3-Zellen,schützen; also recorded: Restaurierung des Überlebens
same,mitochondrialer NAD^+-Gehalt (PAR),293mitoPARP Zellen [2],unterstützen; also recorded: wiederherstellen
"NC(=O)c1ccc[n+]([C@@H]2O[C@H](CO)[C@@H](O)[C@H]2O)c1 [NR, 1-[3,4-Dihydroxy-5-(hydroxymethyl)oxolan-2-yl]pyridin-5-carboxamid]",mitochondriale PAR-Bildung / mitochondriale NAD^+-Generierung,menschlichen Zellen [3]; [8],unterstützt
same,Zelllebensfähigkeit / Zellviabilität,menschlichen Zellen [4]; [8],unterstützt
OCCN(CCO)c1nc(N2CCCCC2)c2nc(N(CCO)CCO)nc(N3CCCCC3)c2n1 [Dipyridamol],Funktion von NMN als extrazellulärer NAD^+-Vorläufer,menschlichen Zellen [3]; Fig. 4A,verlor NMN seine Funktion
same,NR-Nutzung,menschlichen Zellen [3]; Fig. 4B,hemmen
